The source made the active and inactive calls. The rule behind the calls is not given here. A value given as a limit tells only on which side of the number the result lay.

The values below come from ChEMBL document CHEMBL1154171 (J Med Chem, 2009).

Data set [1] concerns the target Cyclin-dependent kinase 2/cyclin E (Homo sapiens, UniProt P24941). The data set can be described thus: Inhibition of CDK2/Cyclin E after 60 mins by fluorescence electrophoresis. The class given is protein-complex assay.
A short description of data set [2]: Antitumor activity against mouse Sal cells xenografted in BALB/c mouse assessed as tumor growth inhibition at 6 to 25 mg/kg, po BID administered 8 hrs apart measured within 5 days. The class given is functional. To be noted: dose mg/kg 6-25.
Data set [3] can be described thus: cells. The note with it: Mus musculus, Sal.
The target in data set [4] is Insulin-like growth factor 1 receptor (Homo sapiens, UniProt P08069). The experiment in a line: Inhibition of IGF1R after 60 mins by fluorescence electrophoresis.
Chain of Insulin-like growth factor 1 receptor (P08069 31-736 limits assumed): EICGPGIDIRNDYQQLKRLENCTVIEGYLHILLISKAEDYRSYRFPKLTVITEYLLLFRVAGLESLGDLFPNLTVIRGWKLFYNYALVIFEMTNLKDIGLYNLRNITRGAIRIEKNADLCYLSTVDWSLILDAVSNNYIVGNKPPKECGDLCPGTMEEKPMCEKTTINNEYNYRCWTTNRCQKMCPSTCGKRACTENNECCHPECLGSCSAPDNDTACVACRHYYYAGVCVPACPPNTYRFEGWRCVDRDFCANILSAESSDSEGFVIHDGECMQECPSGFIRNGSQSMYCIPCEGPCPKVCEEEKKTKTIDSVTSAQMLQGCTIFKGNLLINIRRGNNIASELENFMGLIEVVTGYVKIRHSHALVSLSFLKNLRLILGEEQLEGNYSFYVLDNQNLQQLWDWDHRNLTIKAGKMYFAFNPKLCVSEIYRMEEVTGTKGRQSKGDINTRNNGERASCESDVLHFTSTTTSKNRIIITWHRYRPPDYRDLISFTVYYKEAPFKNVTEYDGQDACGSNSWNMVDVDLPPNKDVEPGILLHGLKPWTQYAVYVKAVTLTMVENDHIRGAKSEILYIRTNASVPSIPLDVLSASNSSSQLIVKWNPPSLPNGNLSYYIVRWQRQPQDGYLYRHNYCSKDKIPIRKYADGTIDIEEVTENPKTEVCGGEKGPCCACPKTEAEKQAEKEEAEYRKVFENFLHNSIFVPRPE
Chain of Insulin-like growth factor 1 receptor (P08069 741-1367 limits assumed): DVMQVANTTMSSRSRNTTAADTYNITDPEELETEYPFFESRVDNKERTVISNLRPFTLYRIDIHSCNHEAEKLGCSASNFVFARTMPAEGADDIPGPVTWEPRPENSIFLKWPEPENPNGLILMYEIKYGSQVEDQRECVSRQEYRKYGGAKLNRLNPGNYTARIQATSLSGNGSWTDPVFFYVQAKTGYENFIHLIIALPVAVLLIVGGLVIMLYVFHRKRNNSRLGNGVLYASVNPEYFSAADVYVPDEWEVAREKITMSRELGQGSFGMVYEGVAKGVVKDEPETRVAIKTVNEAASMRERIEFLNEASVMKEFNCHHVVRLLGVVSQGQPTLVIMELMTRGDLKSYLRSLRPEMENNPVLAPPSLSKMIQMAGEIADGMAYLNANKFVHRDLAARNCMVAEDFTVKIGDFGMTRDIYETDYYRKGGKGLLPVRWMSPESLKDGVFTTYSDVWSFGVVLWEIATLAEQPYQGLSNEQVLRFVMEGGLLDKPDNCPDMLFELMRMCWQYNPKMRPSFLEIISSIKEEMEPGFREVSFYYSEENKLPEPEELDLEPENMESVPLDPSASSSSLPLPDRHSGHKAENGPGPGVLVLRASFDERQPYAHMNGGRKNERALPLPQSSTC
In data set [5] the test system is Mus musculus. The experiment in a line: Toxicity in BALB/c mouse xenografted with mouse Sal cells assessed as change in body weight at 25 mg/kg, po BID administered 8 hrs apart measured within 5 days relative to control. It is filed as organism-based. Details: dose 25 mg/kg, route oral. The note with it: in vivo.
Data set [6] can be described thus: Antitumor activity against mouse Sal cells xenografted in po dosed BALB/c mouse assessed as minimum effective dose required for complete tumor growth inhibition administered BID 8 hrs apart measured within 5 days. It is filed as functional. The note with it: read-out: MED.
The target of data set [7] is Macrophage-stimulating protein receptor (Homo sapiens) (UniProt Q04912). The experiment in a line: Inhibition of Ron.
Data set [8] can be described thus: Bioavailability in iv dosed mouse. It is filed as ADME, organism-based. To be noted: in vivo.
Data set [9] in a line: Antitumor activity against mouse Sal cells xenografted in BALB/c mouse assessed as tumor growth inhibition at 12.5 mg/kg, po BID for 4 days measured 2 hrs after final dose on day 5. The class given is functional. To be noted: read-out: TGI.
A short description of data set [10]: Total clearance in iv dosed dog. The class given is ADME, organism-based, Canis lupus familiaris. The note with it: in vivo.
Data set [11] concerns the target BDNF/NT-3 growth factors receptor (Homo sapiens) (UniProt Q16620). The experiment in a line: Inhibition of TrkB.
The target in data set [12] is RAC-alpha serine/threonine-protein kinase (Mus musculus, UniProt P31750). The data set can be described thus: Inhibition of Akt phosphorylation in mouse Sal cells by Western blotting. The class given is cell-based. Background: A western blot detects proteins with antibodies after separation by electrophoresis.
Chain of RAC-alpha serine/threonine-protein kinase (P31750 whole entry): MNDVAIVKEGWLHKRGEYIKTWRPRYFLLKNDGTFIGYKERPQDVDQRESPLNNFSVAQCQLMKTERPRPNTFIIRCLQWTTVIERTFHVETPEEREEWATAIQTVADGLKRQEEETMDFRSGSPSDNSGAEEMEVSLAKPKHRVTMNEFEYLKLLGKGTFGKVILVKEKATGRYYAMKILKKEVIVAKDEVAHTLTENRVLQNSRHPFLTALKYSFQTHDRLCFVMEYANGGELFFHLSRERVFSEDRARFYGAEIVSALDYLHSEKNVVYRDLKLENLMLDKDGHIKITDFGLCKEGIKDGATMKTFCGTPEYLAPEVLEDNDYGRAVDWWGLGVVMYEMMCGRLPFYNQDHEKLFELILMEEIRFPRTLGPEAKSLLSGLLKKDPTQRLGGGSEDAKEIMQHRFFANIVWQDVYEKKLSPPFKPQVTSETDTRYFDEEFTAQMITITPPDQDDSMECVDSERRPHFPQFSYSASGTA
Data set [13] in a line: Antitumor activity against mouse Sal cells xenografted in BALB/c mouse assessed as tumor growth inhibition at 3.125 mg/kg, po BID for 4 days measured 2 hrs after final dose on day 5. The class given is functional. To be noted: read-out: TGI.
Data set [14] can be described thus: Bioavailability in iv dosed monkey. It is filed as ADME, organism-based, Macaca mulatta. To be noted: rhesus monkey, in vivo.
In data set [15] the target is Cytochrome P450 2C9 (Homo sapiens, UniProt P11712). The experiment in a line: Inhibition of CYP2C9. The class given is ADME.
Data set [16] can be described thus: Total clearance in iv dosed monkey. The class given is ADME, organism-based, Macaca mulatta. To be noted: rhesus monkey, in vivo.
Data set [17] has as its target Insulin receptor (Mus musculus) (UniProt P15208). The experiment in a line: Inhibition of insulin receptor phosphorylation in mouse Sal cells at 0.003 to 1 uM by Western blotting. The class given is cell-based.
Data set [18] concerns Mus musculus. The experiment in a line: Inhibition of IGF1R phosphorylation in po dosed BALB/c mouse xenografted with mouse Sal cells at 3.125 to 12.5 mg/kg, po BID for 4 days measured 2 hrs after final dose on day 5 by Western blot analysis. It is filed as functional, organism-based.
Data set [19] has as its target Aurora kinase B (Homo sapiens) (UniProt Q96GD4). The data set can be described thus: Inhibition of Aurora B.
Data set [20] can be described thus: In vivo antitumor activity against human Rh41 cells assessed as tumor growth inhibition at 12.5 mg/kg BID for 14 consecutive days measured on day 60 post tumor implantation. The class given is functional. The note with it: Rh41, 1440 h, read-out: TGI.
The nature of data set [21]: Plasma protein binding in mouse. It is filed as ADME, cell-free. To be noted: read-out: PPB (converted).
The nature of data set [22]: Total clearance in iv dosed mouse. It is filed as ADME, organism-based. To be noted: in vivo.
For data set [23], the target named is High affinity nerve growth factor receptor (Homo sapiens) (UniProt P04629). The experiment in a line: Inhibition of TrkA.
Data set [24] can be described thus: Antitumor activity against mouse Sal cells xenografted in BALB/c mouse assessed as tumor growth inhibition at 6.25 mg/kg, po BID for 4 days measured 2 hrs after final dose on day 5. The class given is functional. To be noted: read-out: TGI.
Data set [25] relates to Mus musculus. The data set can be described thus: Toxicity in BALB/c mouse xenografted with mouse Sal cells assessed as body weight loss at 25 mg/kg, po BID administered 8 hrs apart for 4 consecutive days measured within 5 days. The note with it: in vivo. It is filed as organism-based. Set-up: dose 25 mg/kg, route oral.
A short description of data set [26]: Total clearance in iv dosed rat. It is filed as ADME, organism-based. The note with it: in vivo.
A short description of data set [27]: Permeability across human Caco-2 cells. It is filed as ADME, cell-based. The note with it: read-out: permeability. In general terms: Passage across Caco-2 layers is used to estimate intestinal permeability.
Data set [28] concerns Mus musculus. The experiment in a line: Inhibition of Akt phosphorylation in po dosed BALB/c mouse xenografted with mouse Sal cells at 3.125 to 12.5 mg/kg, po BID for 4 days measured 2 hrs after final dose on day 5 by Western blot analysis. It is filed as functional, organism-based.
For data set [29], the target named is Cytochrome P450 2D6 (Homo sapiens, UniProt P10635). The data set can be described thus: Inhibition of CYP2D6. It is filed as ADME.
Data set [30] can be described thus: Permeability by PAMPA. It is filed as ADME. To be noted: read-out: permeability. On the technique in general: In PAMPA a lipid-coated filter parts donor from acceptor wells.
The nature of data set [31]: Bioavailability in iv dosed dog. The note with it: in vivo. The class given is ADME, organism-based, Canis lupus familiaris.
Data set [32] addresses Cytochrome P450 1A2 (Homo sapiens, UniProt P05177). The data set can be described thus: Inhibition of CYP1A2. It is filed as ADME.
For data set [33], the target named is Cytochrome P450 2C19 (Homo sapiens, UniProt P33261). The experiment in a line: Inhibition of CYP2C19. It is filed as ADME.
Chain of Cytochrome P450 2C19 (P33261 whole entry): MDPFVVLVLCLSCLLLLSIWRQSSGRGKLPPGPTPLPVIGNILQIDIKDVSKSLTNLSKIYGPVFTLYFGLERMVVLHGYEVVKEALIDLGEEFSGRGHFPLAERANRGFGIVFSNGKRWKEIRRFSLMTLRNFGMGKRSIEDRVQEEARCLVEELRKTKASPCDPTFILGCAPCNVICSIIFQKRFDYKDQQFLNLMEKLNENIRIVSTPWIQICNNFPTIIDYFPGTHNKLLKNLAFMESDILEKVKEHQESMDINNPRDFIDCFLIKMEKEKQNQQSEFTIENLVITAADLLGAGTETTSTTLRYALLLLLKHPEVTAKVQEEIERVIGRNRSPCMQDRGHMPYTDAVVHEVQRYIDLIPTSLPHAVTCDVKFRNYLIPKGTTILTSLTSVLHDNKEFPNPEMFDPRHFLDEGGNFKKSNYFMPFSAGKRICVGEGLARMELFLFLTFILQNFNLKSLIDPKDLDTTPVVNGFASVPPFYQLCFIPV
Data set [34] can be described thus: Bioavailability in iv dosed rat. The class given is ADME, organism-based. To be noted: in vivo.

Chain of BDNF/NT-3 growth factors receptor (Homo sapiens) (Q16620 32-822 limits assumed): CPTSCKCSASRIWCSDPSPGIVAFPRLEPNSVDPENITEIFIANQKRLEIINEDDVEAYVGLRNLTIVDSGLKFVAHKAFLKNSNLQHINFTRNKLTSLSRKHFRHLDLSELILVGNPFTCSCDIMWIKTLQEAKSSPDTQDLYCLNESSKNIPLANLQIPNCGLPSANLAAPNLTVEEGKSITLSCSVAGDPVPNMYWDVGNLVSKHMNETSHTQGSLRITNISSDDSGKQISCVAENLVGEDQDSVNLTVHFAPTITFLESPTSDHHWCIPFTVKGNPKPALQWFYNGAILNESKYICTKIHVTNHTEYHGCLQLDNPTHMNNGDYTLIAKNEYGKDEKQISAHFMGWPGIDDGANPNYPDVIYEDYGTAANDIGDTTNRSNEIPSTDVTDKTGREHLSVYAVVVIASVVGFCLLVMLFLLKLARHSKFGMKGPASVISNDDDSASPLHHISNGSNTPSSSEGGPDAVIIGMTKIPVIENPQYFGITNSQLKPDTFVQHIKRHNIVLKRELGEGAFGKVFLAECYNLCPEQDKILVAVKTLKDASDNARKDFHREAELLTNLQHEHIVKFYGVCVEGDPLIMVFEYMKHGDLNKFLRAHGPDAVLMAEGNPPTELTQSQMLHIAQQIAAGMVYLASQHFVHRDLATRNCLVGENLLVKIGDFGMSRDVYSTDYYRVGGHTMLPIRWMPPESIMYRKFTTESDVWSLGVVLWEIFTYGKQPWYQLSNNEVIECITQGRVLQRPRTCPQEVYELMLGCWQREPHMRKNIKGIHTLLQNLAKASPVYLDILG
Chain of Insulin receptor (Mus musculus) (P15208 28-748 limits assumed): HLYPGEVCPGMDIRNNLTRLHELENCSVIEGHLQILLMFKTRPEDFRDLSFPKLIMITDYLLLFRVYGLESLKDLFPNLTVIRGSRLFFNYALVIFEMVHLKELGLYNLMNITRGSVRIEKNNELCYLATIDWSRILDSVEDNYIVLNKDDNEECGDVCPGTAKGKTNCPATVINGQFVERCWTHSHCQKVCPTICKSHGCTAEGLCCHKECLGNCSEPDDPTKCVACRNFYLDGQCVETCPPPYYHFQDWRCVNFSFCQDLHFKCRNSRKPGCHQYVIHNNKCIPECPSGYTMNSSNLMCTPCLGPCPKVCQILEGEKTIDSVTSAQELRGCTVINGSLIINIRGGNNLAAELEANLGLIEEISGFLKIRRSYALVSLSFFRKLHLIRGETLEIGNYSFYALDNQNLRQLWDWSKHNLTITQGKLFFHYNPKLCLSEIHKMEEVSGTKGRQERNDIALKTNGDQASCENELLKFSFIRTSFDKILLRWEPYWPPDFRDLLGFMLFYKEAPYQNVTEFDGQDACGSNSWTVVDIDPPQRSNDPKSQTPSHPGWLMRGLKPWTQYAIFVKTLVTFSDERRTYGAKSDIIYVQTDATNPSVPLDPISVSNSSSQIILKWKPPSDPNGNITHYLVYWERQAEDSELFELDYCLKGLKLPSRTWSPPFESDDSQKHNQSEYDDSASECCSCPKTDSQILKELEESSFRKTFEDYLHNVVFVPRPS
Chain of Insulin receptor (Mus musculus) (P15208 753-1372 limits assumed): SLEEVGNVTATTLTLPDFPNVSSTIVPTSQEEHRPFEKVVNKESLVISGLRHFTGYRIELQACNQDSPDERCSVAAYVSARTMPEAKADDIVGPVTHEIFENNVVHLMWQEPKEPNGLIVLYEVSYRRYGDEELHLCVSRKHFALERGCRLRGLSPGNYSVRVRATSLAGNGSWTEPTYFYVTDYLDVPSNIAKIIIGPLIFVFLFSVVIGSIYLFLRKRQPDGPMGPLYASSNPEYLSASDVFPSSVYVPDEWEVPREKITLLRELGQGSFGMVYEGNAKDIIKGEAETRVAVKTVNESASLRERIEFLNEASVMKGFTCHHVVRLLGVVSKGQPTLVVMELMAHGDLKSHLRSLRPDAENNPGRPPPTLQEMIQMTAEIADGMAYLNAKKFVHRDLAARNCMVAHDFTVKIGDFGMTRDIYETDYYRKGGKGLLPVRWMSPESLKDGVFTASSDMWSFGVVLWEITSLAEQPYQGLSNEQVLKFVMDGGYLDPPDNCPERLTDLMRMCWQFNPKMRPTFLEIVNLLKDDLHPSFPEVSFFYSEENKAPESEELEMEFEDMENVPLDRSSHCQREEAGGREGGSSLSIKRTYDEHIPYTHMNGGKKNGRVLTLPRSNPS
Chain of Aurora kinase B (Homo sapiens) (Q96GD4 whole entry): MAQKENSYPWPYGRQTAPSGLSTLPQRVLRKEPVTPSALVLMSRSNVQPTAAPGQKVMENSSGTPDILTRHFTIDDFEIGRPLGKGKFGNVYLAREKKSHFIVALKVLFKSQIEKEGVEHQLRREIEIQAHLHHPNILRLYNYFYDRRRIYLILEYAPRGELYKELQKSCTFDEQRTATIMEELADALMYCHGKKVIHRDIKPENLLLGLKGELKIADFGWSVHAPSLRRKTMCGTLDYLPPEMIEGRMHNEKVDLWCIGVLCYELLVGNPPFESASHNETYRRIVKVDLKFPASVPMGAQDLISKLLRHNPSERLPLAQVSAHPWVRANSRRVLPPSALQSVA

On to `C[C@@]1(C(=O)Nc2cccnc2)CCCN1c1nc(Nc2cc(C3CC3)[nH]n2)c2cccn2n1`, for which the IC50 (as a rule, the concentration at which inhibition is half-maximal) in [1] was determined as 1430 nM; in data set [3], 24 nM; in data set [4], 6 nM. Besides, the TGI in data set [2] was found to be 76%. In addition, the Activity in data set [5] is given as 1.9 g. Also, in data set [6], the minimal effective dose turned out to be 25 mg/kg.
Regarding `O=C(Nc1cccnc1)[C@@H]1CCCN1c1nc(Nc2cc(C3CC3)[nH]n2)c2cccn2n1`, the IC50 in [1] stood at 577 nM; in [3], 39 nM.
Molecule `CN(C(=O)[C@@H]1CCCN1c1nc(Nc2cc(C3CC3)[nH]n2)c2cccn2n1)c1ccccc1` yielded a half-inhibitory concentration (IC50) in data set [1] of 200 nM.
As to `C[C@@]1(C(=O)Nc2cnccn2)CCCN1c1nc(Nc2cc(C3CC3)[nH]n2)c2cccn2n1`, in data set [2], the TGI is 113%. Also, the Activity in [5] is given as -3.6 g. Besides, the minimal effective dose in data set [6] stood at 6.25 mg/kg.
Take `Cc1ccc(NC(=O)[C@@H]2CCCN2c2nc(Nc3cc(C4CC4)[nH]n3)c3cccn3n2)cc1`: the half-maximal inhibitory concentration (IC50) turned out to be 1420 nM in data set [1] and 426 nM in data set [3].
For `O=C(Nc1ccccc1)[C@@H]1CCCN1c1nc(Nc2cc(C3CC3)[nH]n2)c2cccn2n1`, the concentration for half-maximal inhibition (IC50) in data set [1] is 322 nM; in [3] it was 133 nM.
In the case of `NC(=O)[C@@H]1CCCN1c1nc(Nc2cc(C3CC3)[nH]n2)c2cccn2n1`, the IC50 was found to be 2 nM in data set [1] and 47 nM in data set [3].
Turning to `NC(=O)[C@H]1CCCN1c1nc(Nc2cc(C3CC3)[nH]n2)c2cccn2n1`, the IC50 stood at 24 nM in [1] and 310 nM in data set [3].
`C[C@@]1(C(=O)Nc2nccs2)CCCN1c1nc(Nc2cc(C3CC3)n[nH]2)c2cccn2n1`: the TGI in data set [2] stood at 74%. The Activity in data set [5] was 0.3 g. The minimal effective dose in data set [6] is 12.5 mg/kg.
On to `O=C(Nc1nccs1)[C@@H]1CCCN1c1nc(Nc2cc(C3CC3)[nH]n2)c2cccn2n1`, for which the IC50 in data set [1] was 40 nM; in data set [3], 69 nM.
For the molecule `C[C@@]1(C(=O)Nc2ccc(F)nc2)CCCN1c1nc(Nc2cc(C3CC3)n[nH]2)c2cccn2n1` [BMS-754807], the inhibition result in data set [7], in data set [11], in data set [18], in data set [19], in [23] and in data set [28] was “Active” each time. Moreover, the bioavailability – broadly, the share of a dose that reaches the circulation, judged against a reference dose that is usually intravenous – in data set [8] was determined as 6%; in data set [14], 8%; in data set [31], 59%; in data set [34], 30%. The results for the inhibition in vivo at 12.5 mg/kg in data set [9] and in data set [20] were 110% and 115%, respectively. The clearance (in general, the volume of plasma or blood freed of the substance per unit of time) in data set [10] stood at 3.5 mL/min/kg; in data set [16], 41 mL/min/kg; in data set [22] it was 113 mL/min/kg; in [26] it was 20 mL/min/kg. For the same molecule, the IC50 in data set [12] is 22 nM; in data set [15], 23000 nM; in [29], more than 40000 nM; in [32], more than 40000 nM; in [33] it was 11000 nM. Further, the inhibition in vivo at 3.125 mg/kg in [13] is 80%. For the same molecule, in data set [17], the result was Active. In addition, the fraction unbound in data set [21] was 0.015. The TGI in [2] worked out at 102%. Moreover, the inhibition in vivo at 6.25 mg/kg in data set [24] came to 107%. In addition, the Activity in data set [25] was more than 10%; in data set [5], 0.2 g. For the same molecule, the Papp in data set [27] stood at 14.1 ×10⁻⁶ cm/s; in [30], 38.7 ×10⁻⁶ cm/s. The minimal effective dose in [6] stood at 6.25 mg/kg.
